Results: US20130116231A1, “TYROSINE KINASE INHIBITORS” (Merck Sharp & Dohme Corp., priority 2010, published 2013)

molecular target: T1, human c-Met (Homo sapiens, UniProt P08581); test: in vitro kinase assay (homogeneous time-resolved tyrosine kinase assay, METKA); format: biochemical; conditions: recombinant GST-tagged c-Met cytosolic domain, HTRF, 50 μM MgATP; read-out: Biological Activity (METKA IC50) Activity Code
T1 construct: Recombinant GST-tagged cytosolic domains of human c-Met; 6xHis; made in house; host or cells: Sf9 or Sf21 insect cells (baculovirus)
Outline: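 HTRF assay with GST-tagged cytosolic c-Met domain (0.2 nM), 0.5 μM biotinylated peptide, 50 μM MgATP, pH 7.4, 5% DMSO, 80 min at room temperature; Eu-anti-pTyr/SA-APC detection, IC50 by 4-parameter fit. Other kinases identical except enzyme level: mouse c-Met 0.2, Ron 2.5, KDR 8, IGFR 0.24, EGFR 0.24, FGFR 0.14, Mer 16, TrkA 8, Tie2 8 nM.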

T1 sequence (P08581 956-1390 limits assumed): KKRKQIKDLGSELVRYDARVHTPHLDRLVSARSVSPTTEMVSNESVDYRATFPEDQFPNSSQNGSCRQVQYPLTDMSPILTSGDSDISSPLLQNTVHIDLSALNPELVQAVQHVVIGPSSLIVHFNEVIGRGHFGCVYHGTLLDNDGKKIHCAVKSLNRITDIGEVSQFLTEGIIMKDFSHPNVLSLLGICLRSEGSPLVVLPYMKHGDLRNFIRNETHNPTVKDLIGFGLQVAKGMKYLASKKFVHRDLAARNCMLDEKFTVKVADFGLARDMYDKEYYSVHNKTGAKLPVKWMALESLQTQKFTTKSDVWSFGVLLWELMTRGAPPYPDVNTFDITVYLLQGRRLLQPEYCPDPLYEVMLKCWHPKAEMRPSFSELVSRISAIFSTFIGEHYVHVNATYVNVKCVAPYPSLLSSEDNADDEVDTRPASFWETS

Question: With `Cn1cc(-n2ccc(=O)c(COc3ccc4ncc(N)cc4c3)n2)cn1` [Example 112, 3-{[(3-Aminoquinolin-6-yl)oxy]methyl}-1-(1-methyl-1H-pyrazol-4-yl)pyridazin-4(1H)-one] as the compound, how does the IC50 read?
Answer: < 100 nM

Question: How did the IC50 turn out when `Cn1cc(-n2ccc(=O)c(COc3ccc(N)cc3)n2)cn1` [Example 115, 3-((4-aminophenoxy)methyl)-1-(1-methyl-1H-pyrazol-4-yl)pyridazin-4(1H)-one] was run?
Answer: 100 to 1000 nM

Question: Which IC50 does the source give for `Cn1cc(-n2ccc(=O)c(COc3ccc(NCCCCO)cc3)n2)cn1` [Example 116, 3-((4-(4-hydroxybutylamino)phenoxy)methyl)-1-(1-methyl-1H-pyrazol-4-yl)pyridazin-4(1H)-one] here?
Answer: 1000 to 3000 nM

Question: How did the IC50 turn out when `Cn1cc(-n2ccc(=O)c(CCc3ccc(N)cc3)n2)cn1` [Example 117, 3-[2-(4-aminophenyl)ethyl]-1-(1-methyl-1H-pyrazol-4-yl)pyridazin-4(1H)-one] was run?
Answer: 1000 to 3000 nM

Question: For `Cn1cc(-n2ccc(=O)c(CCc3ccc(NCCCCO)cc3)n2)cn1` [Example 118, 3-(2-{4-[(4-hydroxybutyl)amino]phenyl}ethyl)-1-(1-methyl-1H-pyrazol-4-yl)pyridazin-4(1H)-one], which IC50 is on record?
Answer: 100 to 1000 nM

Question: With `COCCOC(=O)Nc1ccc(OCc2nn(-c3cnn(C)c3)ccc2=O)cc1` [Example 119, 2-methoxyethyl (4-{[1-(1-methyl-1H-pyrazol-4-yl)-4-oxo-1,4-dihydropyridazin-3-yl]methoxy}phenyl)carbamate] as the compound, how does the IC50 read?
Answer: 1000 to 3000 nM

Question: For `COCCOC(=O)Nc1ccc(CCc2nn(-c3cnn(C)c3)ccc2=O)cc1` [Example 120, 2-methoxyethyl (4-{2-[1-(1-methyl-1H-pyrazol-4-yl)-4-oxo-1,4-dihydropyridazin-3-yl]ethyl}phenyl)carbamate], which IC50 is on record?
Answer: 1000 to 3000 nM

Question: `CCOC(=O)Nc1ccc(CCc2nn(-c3cnn(C)c3)ccc2=O)cc1` [Example 121, ethyl (4-{2-[1-(1-methyl-1H-pyrazol-4-yl)-4-oxo-1,4-dihydropyridazin-3-yl]ethyl}phenyl)carbamate] was tested. Which IC50 did it give?
Answer: 1000 to 3000 nM

Question: How did the IC50 turn out when `CCOC(=O)Nc1ccc(OCc2nn(-c3cnn(C)c3)ccc2=O)cc1` [Example 122, ethyl (4-{[1-(1-methyl-1H-pyrazol-4-yl)-4-oxo-1,4-dihydropyridazin-3-yl]methoxy}phenyl)carbamate] was run?
Answer: 100 to 1000 nM

Question: With `CC(C)COC(=O)Nc1ccc(OCc2nn(-c3cnn(C)c3)ccc2=O)cc1` [Example 123, 2-methylpropyl (4-{[1-(1-methyl-1H-pyrazol-4-yl)-4-oxo-1,4-dihydropyridazin-3-yl]methoxy}phenyl)carbamate] as the compound, how does the IC50 read?
Answer: 1000 to 3000 nM

Question: `C=C(Cc1nn(-c2cnn(C)c2)ccc1=O)c1ccc2ncccc2c1` [Example 124, 1-(1-Methyl-1H-pyrazol-4-yl)-3-(2-quinolin-6-ylprop-2-en-1-yl)pyridazin-4(1H)-one] was tested. Which IC50 did it give?
Answer: 100 to 1000 nM

Question: Which IC50 does the source give for `Cn1cc(-n2ccc(=O)c(OCc3ccc4ncccc4c3)n2)cn1` [Example 127, 1-(1-Methyl-1H-pyrazol-4-yl)-3-(quinolin-6-ylmethoxy)pyridazin-4(1H)-one] here?
Answer: 1000 to 3000 nM

Question: Which IC50 does the source give for `CCn1cc(-n2ccc(=O)c(OCc3ccc4ncccc4c3)n2)cn1` [Example 128, 1-(1-ethyl-1H-pyrazol-4-yl)-3-(quinolin-6-ylmethoxy)pyridazin-4(1H)-one] here?
Answer: 100 to 1000 nM

Question: `Cn1cc(-c2cnc3ccc(COc4nn(-c5cnn(C)c5)ccc4=O)cc3c2)cn1` [Example 129, 1-(1-methyl-1H-pyrazol-4-yl)-3-{[3-(1-methyl-1H-pyrazol-4-yl)quinolin-6-yl]methoxy}pyridazin-4(1H)-one] was tested. Which IC50 did it give?
Answer: < 100 nM

Question: For `CC(Oc1nn(-c2cnn(C)c2)ccc1=O)c1ccc2ncccc2c1` (centres unmarked) [Example 130, 1-(1-methyl-1H-pyrazol-4-yl)-3-(1-quinolin-6-ylethoxy)pyridazin-4(1H)-one], which IC50 is on record?
Answer: 100 to 1000 nM

Question: `COc1ccnc2ccc(C(C)Oc3nn(-c4cnn(C)c4)ccc3=O)cc12` (centres unmarked) [Example 131, 3-[1-(4-methoxyquinolin-6-yl)ethoxy]-1-(1-methyl-1H-pyrazol-4-yl)pyridazin-4(1H)-one] was tested. Which IC50 did it give?
Answer: 100 to 1000 nM

Question: With `CCn1cc(-n2ccc(=O)c(OC(C)c3ccc4nccc(OC)c4c3)n2)cn1` (centres unmarked) [Example 132, 1-(1-ethyl-1H-pyrazol-4-yl)-3-[1-(4-methoxyquinolin-6-yl)ethoxy]pyridazin-4(1H)-one] as the compound, how does the IC50 read?
Answer: < 100 nM

Question: `CC(Oc1nn(-c2cnn(C)c2)ccc1=O)c1ccc2ncc(-c3cnn(C)c3)cc2c1` (centres unmarked) [Example 136, 1-(1-methyl-1H-pyrazol-4-yl)-3-{1-[3-(1-methyl-1H-pyrazol-4-yl)quinolin-6-yl]ethoxy}pyridazin-4(1H)-one] was tested. Which IC50 did it give?
Answer: < 100 nM

Question: With `COc1ccnc2ccc(COc3nn(-c4cnn(C)c4)ccc3=O)cc12` [Example 137, 3-[(4-methoxyquinolin-6-yl)methoxy]-1-(1-methyl-1H-pyrazol-4-yl)pyridazin-4(1H)-one] as the compound, how does the IC50 read?
Answer: 1000 to 3000 nM

Question: `Cn1cc(-n2ccc(=O)c(NCc3ccc4ncccc4c3)n2)cn1` [Example 147, 1-(1-methyl-1H-pyrazol-4-yl)-3-[(quinolin-6-ylmethyl)amino]pyridazin-4(1H)-one] was tested. Which IC50 did it give?
Answer: 100 to 1000 nM

Question: `CC(Nc1nn(-c2cnn(C)c2)ccc1=O)c1ccc2ncccc2c1` (centres unmarked) [Example 148] was tested. Which IC50 did it give?
Answer: < 100 nM

Question: For `Cn1cc(-n2ccc(=O)c(SCc3ccc4ncccc4c3)n2)cn1` [Example 149, 1-(1-methyl-1H-pyrazol-4-yl)-3-[(quinolin-6-ylmethyl)thio]pyridazin-4(1H)-one], which IC50 is on record?
Answer: < 100 nM

Question: For `COC(=O)C(Cc1nn(-c2cnn(C)c2)ccc1=O)c1ccc2ncccc2c1` (centres unmarked) [Example 150, Methyl 3-[1-(1-methyl-1H-pyrazol-4-yl)-4-oxo-1,4-dihydropyridazin-3-yl]-2-(quinolin-6-yl)propanoate], which IC50 is on record?
Answer: 1000 to 3000 nM
